Results: PubChem BioAssay AID330 (DTP/NCI, 2004)
Where “and” joins values, the source holds several entries; their conditions need not be identical. Identical values can stand only once. Toxic doses and inconclusive results are not listed. Peptide text beside a SMILES is read from it. * marks the point of attachment. Cbz = O=C(OCc1ccccc1)*

Test system: P388 leukemia ip, CD2F1 mice, survival T/C
Experiment: NCI In Vivo Anticancer Drug Screen. Data for tumor model P388 Leukemia (intraperitoneal) in CD2F1 (CDF1) mice
Settings: endpoint: median survival time, higher = longer survival
Procedure, shortened: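 Mice carrying the transplanted tumor received test compound or vehicle. Survival was recorded in each group, and the value is the treated-group measurement divided by that of the vehicle-treated control group.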

[1] = dose: 100.0 mg/kg/injection, schedule: Q01DX005 (ip), vehicle: Klucel (hydroxypropylcellulose) (HPC)
[2] = dose: 200.0 mg/kg/injection, schedule: Q01DX005 (ip), vehicle: Klucel (hydroxypropylcellulose) (HPC)
[3] = dose: 50.0 mg/kg/injection, schedule: Q01DX005 (ip), vehicle: saline with Tween-80
[4] = dose: 100.0 mg/kg/injection, schedule: Q01DX005 (ip), vehicle: saline with Tween-80
[5] = dose: 200.0 mg/kg/injection, schedule: Q01DX005 (ip), vehicle: saline with Tween-80
[6] = dose: 50.0 mg/kg/injection, schedule: Q01DX009 (ip), vehicle: saline with Tween-80
[7] = dose: 100.0 mg/kg/injection, schedule: Q01DX009 (ip), vehicle: saline with Tween-80
[8] = dose: 200.0 mg/kg/injection, schedule: Q01DX009 (ip), vehicle: saline with Tween-80
[9] = dose: 50.0 mg/kg/injection, schedule: Q01DX005 (ip), vehicle: Klucel (hydroxypropylcellulose) (HPC)
[10] = dose: 25.0 mg/kg/injection, schedule: Q01DX009 (ip), vehicle: saline
[11] = dose: 50.0 mg/kg/injection, schedule: Q01DX009 (ip), vehicle: saline
[12] = dose: 100.0 mg/kg/injection, schedule: Q01DX009 (ip), vehicle: saline
[13] = dose: 60.0 mg/kg/injection, schedule: Q01DX005 (ip), vehicle: saline with Tween-80
[14] = dose: 120.0 mg/kg/injection, schedule: Q01DX005 (ip), vehicle: saline with Tween-80
[15] = dose: 240.0 mg/kg/injection, schedule: Q01DX005 (ip), vehicle: saline with Tween-80
[16] = dose: 12.5 mg/kg/injection, schedule: Q01DX009 (ip), vehicle: Klucel (hydroxypropylcellulose) (HPC)
[17] = dose: 25.0 mg/kg/injection, schedule: Q01DX009 (ip), vehicle: Klucel (hydroxypropylcellulose) (HPC)
[18] = dose: 50.0 mg/kg/injection, schedule: Q01DX009 (ip), vehicle: Klucel (hydroxypropylcellulose) (HPC)
[19] = dose: 100.0 mg/kg/injection, schedule: Q01DX009 (ip), vehicle: Klucel (hydroxypropylcellulose) (HPC)

O=[N+]([O-])c1ccc(CN2CCC(C(=S)Nc3ccccc3)=C2c2ccccc2)cc1
T/C (dose: 6.25 mg/kg/injection, schedule: Q01DX005 (ip), vehicle: Klucel (hydroxypropylcellulose) (HPC)): 92 % of control
T/C (dose: 12.5 mg/kg/injection, schedule: Q01DX005 (ip), vehicle: Klucel (hydroxypropylcellulose) (HPC)): 90 % of control
T/C (dose: 25.0 mg/kg/injection, schedule: Q01DX005 (ip), vehicle: Klucel (hydroxypropylcellulose) (HPC)): 87 % of control
T/C [1]: 92 % of control
T/C [2]: 87 % of control

O=C1CSc2nc3ccc(Cl)cc3c(=O)n21
T/C [3]: 93 % of control
T/C [4]: 101 % of control
T/C [5]: 104 % of control

CC(=Nc1ccccc1)C1=C(O)C(CC(C)C)NC1=O (stereo not given)
T/C [6]: 103 % of control
T/C [7]: 99 % of control
T/C [8]: 100 % of control
T/C (dose: 400.0 mg/kg/injection, schedule: Q01DX009 (ip), vehicle: saline with Tween-80): 110 % of control

C=CCC12CC(O)C(O)CC1(OC)OC(c1cc(OC)c(OC)c(OC)c1)C2C (stereo not given)
T/C (dose: 1.25 mg/kg/injection, schedule: Q01DX005 (ip), vehicle: acid diluted with saline): 102 % of control
T/C (dose: 2.5 mg/kg/injection, schedule: Q01DX005 (ip), vehicle: acid diluted with saline): 102 % of control
T/C (dose: 5.0 mg/kg/injection, schedule: Q01DX005 (ip), vehicle: acid diluted with saline): 98 % of control
T/C (dose: 10.0 mg/kg/injection, schedule: Q01DX005 (ip), vehicle: acid diluted with saline): 102 % of control

CCOC(=O)c1cnc(NCCCCCCNc2ncc(C(=O)OCC)c(=O)[nH]2)[nH]c1=O
T/C [9]: 97 % of control
T/C [1]: 91 % of control

C(=C\c1cccs1)/c1ccnnc1
T/C [10]: 101 % of control
T/C [11]: 99 % of control
T/C [12]: 86 % of control and 96 % of control

CC(=O)CCC12CCC(=O)N1Cc1ccccc1C2=O (stereo not given)
T/C [13]: 106 % of control
T/C [14]: 123 % of control
T/C [15]: 106 % of control

OC(c1cccnc1)C(CCc1ccccn1)c1ccccn1 (stereo not given)
T/C (dose: 100.0 mg/kg/injection, schedule: Q04DX003 (ip), vehicle: saline): 102 % of control
T/C (dose: 200.0 mg/kg/injection, schedule: Q04DX003 (ip), vehicle: saline): 101 % of control
T/C (dose: 400.0 mg/kg/injection, schedule: Q04DX003 (ip), vehicle: saline): 91 % of control

CCCCCCCN(CCCCCCC)CC(O)c1c(OC)c2ccccc2c2ccccc12 (stereo not given)
T/C (dose: 25.0 mg/kg/injection, schedule: Q01DX009 (ip), vehicle: saline with Tween-80): 89 % of control
T/C [6]: 88 % of control

Cc1cc2cc(CN)ccc2n1C
T/C (dose: 100.0 mg/kg/injection, schedule: Q01DX001 (ip), vehicle: Klucel (hydroxypropylcellulose) (HPC)): 103 % of control

CN(C)/C=N\c1ncnc2c1c(C#N)cn2C1OC(CO)C(O)C1O (stereo not given)
T/C (dose: 7.5 mg/kg/injection, schedule: Q01DX005 (ip), vehicle: Klucel (hydroxypropylcellulose) (HPC)): 104 % of control and 112 % of control
T/C (dose: 15.0 mg/kg/injection, schedule: Q01DX005 (ip), vehicle: Klucel (hydroxypropylcellulose) (HPC)): 120 % of control and 121 % of control

O=C(NC(Cc1ccc(O)cc1)C(=O)NC(Cc1ccccc1)C(=O)O)OCc1ccccc1 (stereo not drawn) (Cbz-Tyr-Phe-OH; configuration not given here)
T/C [3]: 102 % of control
T/C [4]: 106 % of control
T/C [5]: 104 % of control

O=c1[nH][nH]c2c([N+](=O)[O-])ccc(F)c12
T/C [16]: 100 % of control
T/C [17]: 101 % of control
T/C [18]: 110 % of control

O=C(CCl)Nc1c(Br)cc(F)cc1Br
T/C [6]: 88 % of control
T/C [7]: 99 % of control
T/C [8]: 104 % of control

CCc1nc(N)nc(N)c1-c1ccc(Cl)c(NN=NC)c1
T/C (dose: 12.5 mg/kg/injection, schedule: Q01DX005 (ip), vehicle: saline with Tween-80): 109 % of control
T/C (dose: 25.0 mg/kg/injection, schedule: Q01DX005 (ip), vehicle: saline with Tween-80): 108 % of control
T/C [3]: 105 % of control and 110 % of control
T/C [4]: 112 % of control

Nc1ncnc2c1ncn2C[c-]1[c-][c-][c-][c-]1.[Fe].[c-]1[c-][c-][cH-][c-]1
T/C [9]: 94 % of control
T/C [1]: 94 % of control
T/C [2]: 100 % of control

C[N+](C)(CC(=O)Nc1cccc(C(F)(F)F)c1)CC(=O)Nc1cccc(C(F)(F)F)c1
T/C (dose: 3.13 mg/kg/injection, schedule: Q01DX009 (ip), vehicle: saline sonified): 100 % of control
T/C (dose: 6.25 mg/kg/injection, schedule: Q01DX009 (ip), vehicle: saline sonified): 104 % of control
T/C (dose: 12.5 mg/kg/injection, schedule: Q01DX009 (ip), vehicle: saline sonified): 109 % of control

CC(/C=N/N=C(N)N)=N/N=C(N)N
T/C [10]: 120 % of control
T/C (dose: 25.0 mg/kg/injection, schedule: Q04DX003 (ip), vehicle: saline): 100 % of control
T/C [11]: 150 % of control
T/C (dose: 50.0 mg/kg/injection, schedule: Q04DX003 (ip), vehicle: saline): 100 % of control
T/C (dose: 75.0 mg/kg/injection, schedule: Q01DX009 (ip), vehicle: saline): 170 % of control
T/C [7]: 86 % of control

CN(C)c1ccc2c(c1)Sc1cc(N(C)C)ccc1N2C(=O)c1ccccc1
T/C [16]: 105 % of control
T/C [17]: 103 % of control
T/C [18]: 102 % of control
T/C [19]: 98 % of control

O=C1C(c2ccccc2)=S=C2Sc3ccccc3N12
T/C [6]: 105 % of control
T/C [7]: 102 % of control
T/C [8]: 95 % of control

CCOC(=O)CCCc1ccc(N=NN(C)C)cc1
T/C (dose: 66.0 mg/kg/injection, schedule: Q04DX003 (ip), vehicle: saline with Tween-80): 118 % of control
T/C (dose: 100.0 mg/kg/injection, schedule: Q04DX003 (ip), vehicle: saline with Tween-80): 159 % of control

Cc1[nH]c(=O)[nH]c(=O)c1C(=O)O
T/C [6]: 100 % of control
T/C [7]: 105 % of control
T/C [8]: 99 % of control

CSc1nc(SC)c2c(C)c(Br)[nH]c2n1
T/C (dose: 100.0 mg/kg/injection, schedule: Q01DX001 (ip), vehicle: saline with Tween-80): 94 % of control
T/C (dose: 200.0 mg/kg/injection, schedule: Q01DX001 (ip), vehicle: saline with Tween-80): 94 % of control
T/C (dose: 400.0 mg/kg/injection, schedule: Q01DX001 (ip), vehicle: saline with Tween-80): 89 % of control

Cc1ccc(O)c[n+]1[O-]
T/C [10]: 101 % of control
T/C [11]: 100 % of control and 105 % of control
T/C [12]: 102 % of control and 97 % of control
T/C (dose: 200.0 mg/kg/injection, schedule: Q01DX009 (ip), vehicle: saline): 105 % of control and 117 % of control
T/C (dose: 400.0 mg/kg/injection, schedule: Q01DX009 (ip), vehicle: saline): 108 % of control and 109 % of control

O=C(Nc1ccc(Cl)cc1)Nc1nccs1
T/C (dose: 12.5 mg/kg/injection, schedule: Q01DX009 (ip), vehicle: distilled water + Tween-80): 100 % of control
T/C (dose: 25.0 mg/kg/injection, schedule: Q01DX009 (ip), vehicle: distilled water + Tween-80): 109 % of control
T/C (dose: 50.0 mg/kg/injection, schedule: Q01DX009 (ip), vehicle: distilled water + Tween-80): 111 % of control
T/C (dose: 100.0 mg/kg/injection, schedule: Q01DX009 (ip), vehicle: distilled water + Tween-80): 118 % of control

C1=CCOCOC1
T/C [6]: 102 % of control and 109 % of control (2×)
T/C [7]: 104 % of control and 109 % of control and 116 % of control
T/C [8]: 111 % of control

CSc1nc(N)c(C(=O)N(c2ccccc2)c2ccccc2)s1
T/C [18]: 100 % of control
T/C [19]: 108 % of control
T/C (dose: 200.0 mg/kg/injection, schedule: Q01DX009 (ip), vehicle: Klucel (hydroxypropylcellulose) (HPC)): 98 % of control

COc1ccc(C2CC3CCC(C2O)N3C)cc1 (stereo not given)
T/C [9]: 103 % of control
T/C [1]: 96 % of control

Clc1ccccc1-n1cccc1/C=N\N=C/c1cccn1-c1ccccc1Cl
T/C [3]: 107 % of control
T/C [4]: 110 % of control and 86 % of control
T/C [5]: 121 % of control and 86 % of control and 90 % of control

COc1cc(C(=O)NNC(=O)C2CCC(=O)N2Cc2ccccc2)cc(OC)c1OC (stereo not given)
T/C [13]: 89 % of control
T/C [14]: 90 % of control
T/C [15]: 87 % of control
